Data from patent US20010051646A1, “Method for the improvement of islet signaling in diabetes mellitus and for its prevention” (priority 2000, published 2001).

Columns and labels:
Male Zucker fa/fa rats [1] = test: Repeated once-daily oral dosing: morning blood glucose and plasma insulin; format: in vivo, rat
Description: The parameters monitored were morning blood glucose and plasma insulin levels. In a day-night profile, glycemia and insulinaemia were monitored from day 16 to day 17. An OGTT was performed finally on day 21 to monitor blood glucose and plasma insulin kinetics to assess changes in glucose tolerance. Glibenclamide (DAB 1996; R011150/33372) was donated by Berlin-Chemie (Berlin, Germany). Male Zucker (fa/fa) rats of the body weight class of 300 g were purchased from Charles River (Sulzfeld, Germany).
Housing Conditions: Animals were kept single-housed under conventional conditions with controlled temperature (22±2° C.) on a 12/12 hours light/dark cycle (light on at 06:00 a.m.). Standard pellets (ssniff®, Soest, Germany) and tap water acidified with HCl were allowed ad libitum.
Catheterization of Carotid Artery: After one week of adaptation carotid catheters were implanted in the rats under general anesthesia (injection of 0.25 ml/kg i.p. Rompun® [2%], Bayer, Germany) and 0.5 ml/kg i.p. Velonarkon® (Arzneimittelwerk Dresden, Germany). The animals were allowed to recover for one week. The catheter was flushed with heparin-saline (100 IU/ml) three times per week.
Thereafter, the non-diabetic Wistar rats were treated orally once daily with RP (5 mg/kg b.w.) or TP (21.61 mg/kg b.w.) and the diabetic Zucker rats were treated orally once daily with RP (1 mg/kg b.w.) or TP (21.61 mg/kg b.w.) for 21 days at 05.00 p.m. (before regular food intake in the dark phase). The controls were given 1% cellulose solution orally (5 ml/kg). Blood samples were taken every morning at 07.30 a.m. from tail veins for measurement of blood glucose and plasma insulin. The last blood samples of this part of the program were taken at 07.30 a. m. on the 15th day to measure blood glucose and plasma insulin. The oral drug therapy was continued for one week. Recording the day-night profile under the above therapy blood glucose (Δt=3 h) and plasma insulin (Δt=3-6 h) were monitored from day 16 (at 05.00 p.m. beginning) to day 17 (at 02.00 p.m. end).
Blood glucose: Glucose levels were measured using the glucose oxidase procedure (Super G Glukosemeβgerät; Dr. Müller Gerätebau, Freital, Germany).
Plasma insulin: Insulin concentrations were assayed by the antibody RIA method (LINCO Research, Inc. St. Charles, Mo., USA).

[2] = biological target: T1, PepT1 intestinal peptide transporter (Homo sapiens, UniProt P46059); test: Active transport through the intestinal mucosa
T1 sequence (P46059 1-708): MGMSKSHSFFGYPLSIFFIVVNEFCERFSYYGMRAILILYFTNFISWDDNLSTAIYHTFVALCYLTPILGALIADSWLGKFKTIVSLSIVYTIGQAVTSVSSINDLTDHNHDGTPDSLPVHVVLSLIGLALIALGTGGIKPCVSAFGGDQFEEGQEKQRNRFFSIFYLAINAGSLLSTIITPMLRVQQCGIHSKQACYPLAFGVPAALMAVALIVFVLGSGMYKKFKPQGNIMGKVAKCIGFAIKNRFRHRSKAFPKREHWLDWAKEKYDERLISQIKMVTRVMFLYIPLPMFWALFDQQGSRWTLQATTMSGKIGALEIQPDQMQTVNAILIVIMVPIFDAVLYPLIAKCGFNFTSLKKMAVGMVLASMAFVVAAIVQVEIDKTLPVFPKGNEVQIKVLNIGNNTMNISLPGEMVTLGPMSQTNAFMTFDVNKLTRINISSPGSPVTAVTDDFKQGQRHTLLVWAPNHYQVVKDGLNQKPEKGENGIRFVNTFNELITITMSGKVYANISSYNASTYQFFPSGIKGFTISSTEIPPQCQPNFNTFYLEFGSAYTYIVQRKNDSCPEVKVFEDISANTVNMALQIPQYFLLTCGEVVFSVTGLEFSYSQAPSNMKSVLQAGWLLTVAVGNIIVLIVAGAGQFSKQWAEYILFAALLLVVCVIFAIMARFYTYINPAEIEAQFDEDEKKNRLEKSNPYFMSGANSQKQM

Male Zucker fa/fa rats [3] = test: Day-night profile of glycemia and insulinemia, day 16 to day 17 of treatment; format: in vivo, rat
Description: The parameters monitored were morning blood glucose and plasma insulin levels. […] An OGTT was performed finally on day 21 to monitor blood glucose and plasma insulin kinetics to assess changes in glucose tolerance. Glibenclamide (DAB 1996; R011150/33372) was donated by Berlin-Chemie (Berlin, Germany). Male Zucker (fa/fa) rats of the body weight class of 300 g were purchased from Charles River (Sulzfeld, Germany). […] Thereafter, the non-diabetic Wistar rats were treated orally once daily with RP (5 mg/kg b.w.) or TP (21.61 mg/kg b.w.) and the diabetic Zucker rats were treated orally once daily with RP (1 mg/kg b.w.) or TP (21.61 mg/kg b.w.) for 21 days at 05.00 p.m. (before regular food intake in the dark phase). The controls were given 1% cellulose solution orally (5 ml/kg). […] The oral drug therapy was continued for one week. […] Blood glucose: Glucose levels were measured using the glucose oxidase procedure (Super G Glukosemeβgerät; Dr. Müller Gerätebau, Freital, Germany). Plasma insulin: Insulin concentrations were assayed by the antibody RIA method (LINCO Research, Inc. St. Charles, Mo., USA).

isoleucyl thiazolidine hemifumarate [P32/98]
Hyperinsulinemia (Male Zucker fa/fa rats [1]; given once daily): reduced | Morning blood glucose (Male Zucker fa/fa rats [1]; given once daily): normalized | Time until morning blood glucose was reduced to a normal value (Male Zucker fa/fa rats [1]; once daily oral): ≤ 5 days | Plasma insulin during 14 days in comparison to the control animals (Male Zucker fa/fa rats [1]; rat, in vivo): slightly decrease insulin concentration | Transport via the PepT1 intestinal peptide transporter [2]: actively transported | Mean blood glucose, day-night profile (Male Zucker fa/fa rats [3]; 02.00 p.m. next day, RP 1 mg/kg, TP 21.61 mg/kg orally once daily): 5.51 ± 0.19 mmol/L | Plasma insulin, day-night profile (Male Zucker fa/fa rats [3]; 02.00 p.m. the next day): 24.3 ± 3.7 ng/mL | Plasma insulin, day-night profile (Male Zucker fa/fa rats [3]; 05.00 a.m. (maximum)): 57.1 ± 8.6 ng/mL | Plasma insulin, day-night profile (Male Zucker fa/fa rats [3]; 05.00 p.m., RP 1 mg/kg, TP 21.61 mg/kg orally once daily): significantly lower than in the RP | Mean blood glucose, day-night profile (Male Zucker fa/fa rats [3]; 08.00 a.m., TP 21.61 mg/kg orally once daily): 5.64 ± 0.23 mmol/L | Plasma insulin, day-night profile (Male Zucker fa/fa rats [3]; 08.00 p.m.): 41.9 ± 8.5 ng/mL | Mean blood glucose, day-night profile (Male Zucker fa/fa rats [3]; 11.00 a.m., RP 1 mg/kg, TP 21.61 mg/kg orally once daily): 5.33 ± 0.14 mmol/L | Mean blood glucose, day-night profile (Male Zucker fa/fa rats [3]; 11.00 p.m., RP 1 mg/kg, TP 21.61 mg/kg orally once daily): 8.34 ± 0.47 mmol/L | Increase of glycemia from 05.00 p.m. to 11.00 p.m. (Male Zucker fa/fa rats [3]; day 16): about 3 mmol/l | Individual blood glucose values, range (Male Zucker fa/fa rats [3]; day 16, 05.00 p.m.): 4.34 to 6.07 mmol/L | Mean blood glucose, day-night profile (Male Zucker fa/fa rats [3]; day 16, 05.00 p.m. before drug application, RP 1 mg/kg, TP 21.61 mg/kg orally once daily): 5.25 ± 0.16 mmol/L | Blood glucose in the day-night profile (Male Zucker fa/fa rats [3]; given once daily): < 8.3 mmol/L | Economization (saving) of insulin compared to the control (Male Zucker fa/fa rats [3]; obese Zucker rat, subchronic treatment): 45%
